# Test results: ChEMBL document CHEMBL1201862, “PubChem BioAssay data set” (2004)
# Calls of active or inactive are those of the source.
# What was measured:
# [1] = molecular target: Estrogen receptor (Homo sapiens, UniProt P03372);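 note: potency for inhibiting coactivator peptide recruitment to the receptor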
# [2] = molecular target: Estrogen receptor beta (Homo sapiens, UniProt Q92731);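 note: recombinant ER-beta bound to coactivator SRC1 peptide in presence of estradiol agonist; inhibitors block coactivator peptide binding and lower the FRET signal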
# Estrogen receptor beta, sequence (Q92731 whole entry): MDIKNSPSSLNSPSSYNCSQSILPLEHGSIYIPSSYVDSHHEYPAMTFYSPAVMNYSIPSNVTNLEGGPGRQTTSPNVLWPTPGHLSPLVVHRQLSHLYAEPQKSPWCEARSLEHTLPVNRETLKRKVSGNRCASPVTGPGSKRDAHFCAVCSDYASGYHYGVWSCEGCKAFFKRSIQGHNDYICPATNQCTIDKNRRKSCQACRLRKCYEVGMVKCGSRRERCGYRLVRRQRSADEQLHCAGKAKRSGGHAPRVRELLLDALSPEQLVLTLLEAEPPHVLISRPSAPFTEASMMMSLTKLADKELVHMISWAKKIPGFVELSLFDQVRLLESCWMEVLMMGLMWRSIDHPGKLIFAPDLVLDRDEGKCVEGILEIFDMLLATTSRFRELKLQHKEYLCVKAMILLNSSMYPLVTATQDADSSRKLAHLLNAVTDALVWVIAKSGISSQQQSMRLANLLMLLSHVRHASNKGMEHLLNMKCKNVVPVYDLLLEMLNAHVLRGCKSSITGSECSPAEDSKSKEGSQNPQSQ
# [3] = molecular target: NADPH oxidase 1 (Homo sapiens, UniProt Q9Y5S8); test: Luminescence-based cell-based dose response assay to identify inhibitors of NADPH oxidase 1 (NOX1).; assay type: functional
# NADPH oxidase 1, sequence (Q9Y5S8 whole entry): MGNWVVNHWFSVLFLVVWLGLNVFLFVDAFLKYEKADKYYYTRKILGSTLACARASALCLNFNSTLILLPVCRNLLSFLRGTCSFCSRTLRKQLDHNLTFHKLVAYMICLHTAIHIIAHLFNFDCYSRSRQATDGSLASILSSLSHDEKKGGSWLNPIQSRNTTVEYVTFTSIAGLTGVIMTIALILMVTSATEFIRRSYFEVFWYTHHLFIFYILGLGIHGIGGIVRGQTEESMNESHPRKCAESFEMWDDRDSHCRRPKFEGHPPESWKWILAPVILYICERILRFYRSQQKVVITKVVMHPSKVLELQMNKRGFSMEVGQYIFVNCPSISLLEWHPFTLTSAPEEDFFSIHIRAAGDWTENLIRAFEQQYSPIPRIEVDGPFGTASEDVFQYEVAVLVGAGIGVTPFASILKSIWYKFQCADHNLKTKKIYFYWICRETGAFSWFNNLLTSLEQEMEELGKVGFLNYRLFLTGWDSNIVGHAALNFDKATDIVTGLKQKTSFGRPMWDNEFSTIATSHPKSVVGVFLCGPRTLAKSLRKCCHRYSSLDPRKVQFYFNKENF
# [4] = molecular target: Lysosomal acid glucosylceramidase (Homo sapiens, UniProt P04062); test: Dose response cell-based high throughput screening assay to identify enhancers of beta-glucosidase activity. [Related pubchem assays: 784 ]; assay type: functional
# [5] = system: Streptococcus; test: Luminescence Microorganism-Based Dose Response Follow up to Identify Compounds Cytotoxic to Streptococcus. [Related pubchem assays: 1677 (Project Summary), 1915, 1914, 1902 (Retest at Dose), 1900 (Counter Screen), 1662 (Primary HTS)]; assay type: functional, organism-based
# [6] = molecular target: Sphingosine 1-phosphate receptor 2 (Homo sapiens, UniProt O95136); test: Dose Response Cell Based Assay for Agonists of the S1P2 Receptor. [Related pubchem assays: 729, 736, 843 ]; assay type: functional
# Sphingosine 1-phosphate receptor 2, sequence (O95136 whole entry): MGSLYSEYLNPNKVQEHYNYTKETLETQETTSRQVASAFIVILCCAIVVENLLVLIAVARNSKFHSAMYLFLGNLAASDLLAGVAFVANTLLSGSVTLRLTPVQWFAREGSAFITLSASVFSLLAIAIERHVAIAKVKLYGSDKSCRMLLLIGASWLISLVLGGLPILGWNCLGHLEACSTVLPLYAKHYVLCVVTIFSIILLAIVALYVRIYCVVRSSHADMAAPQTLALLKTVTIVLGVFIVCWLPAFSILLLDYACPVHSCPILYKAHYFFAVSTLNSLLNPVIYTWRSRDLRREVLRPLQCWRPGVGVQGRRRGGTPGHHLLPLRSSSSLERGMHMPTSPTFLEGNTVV
# [7] = molecular target: Glyceraldehyde-3-phosphate dehydrogenase (Homo sapiens, UniProt P04406)
# Glyceraldehyde-3-phosphate dehydrogenase, sequence (P04406 whole entry): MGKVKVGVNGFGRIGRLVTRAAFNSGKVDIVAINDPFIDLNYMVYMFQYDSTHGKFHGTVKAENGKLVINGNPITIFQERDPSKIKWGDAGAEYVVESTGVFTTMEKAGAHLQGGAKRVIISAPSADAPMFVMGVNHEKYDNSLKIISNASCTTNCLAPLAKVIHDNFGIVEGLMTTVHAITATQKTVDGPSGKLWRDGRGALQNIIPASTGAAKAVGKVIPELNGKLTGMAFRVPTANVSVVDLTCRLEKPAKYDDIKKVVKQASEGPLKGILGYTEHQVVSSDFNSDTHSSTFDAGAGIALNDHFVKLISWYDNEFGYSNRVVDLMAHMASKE
# [8] = molecular target: Oxytocin receptor (Homo sapiens, UniProt P30559); test: Fluorescence-based cell-based high throughput dose response assay for agonists of the Oxytocin Receptor (OXTR). [Related pubchem assays: 2435 (Primary screen (OXTR agonists in singlicate)), 434991 (Counterscreen (V1R agonists in triplicate)), 2482 (Summary (OXTR agonists)), 434963 (Confirmation screen (OXTR agonists in triplicate))]; assay type: functional
# Oxytocin receptor, sequence (P30559 whole entry): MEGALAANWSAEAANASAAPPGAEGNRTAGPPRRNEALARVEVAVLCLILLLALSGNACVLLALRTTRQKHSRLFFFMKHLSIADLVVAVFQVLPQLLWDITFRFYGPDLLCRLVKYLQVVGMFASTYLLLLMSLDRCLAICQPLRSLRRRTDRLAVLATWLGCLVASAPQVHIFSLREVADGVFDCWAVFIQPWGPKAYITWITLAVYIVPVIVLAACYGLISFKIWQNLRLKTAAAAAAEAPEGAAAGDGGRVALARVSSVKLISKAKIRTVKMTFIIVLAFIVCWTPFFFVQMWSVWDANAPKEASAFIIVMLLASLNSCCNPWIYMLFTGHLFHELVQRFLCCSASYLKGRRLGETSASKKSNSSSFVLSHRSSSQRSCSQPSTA
# [9] = molecular target: Vasopressin V1a receptor (Homo sapiens, UniProt P37288); test: Counterscreen for Oxytocin Receptor (OXTR) agonists: Fluorescence-based cell-based high throughput dose response assay to identify agonists of the vasopressin 1 receptor (V1R). [Related pubchem assays: 2435 (Primary screen (OXTR agonists in singlicate)), 434991 (Counterscreen (V1R agonists in triplicate)), 2482 (Summary (OXTR agonists)) …; assay type: functional
# Vasopressin V1a receptor, sequence (P37288 whole entry): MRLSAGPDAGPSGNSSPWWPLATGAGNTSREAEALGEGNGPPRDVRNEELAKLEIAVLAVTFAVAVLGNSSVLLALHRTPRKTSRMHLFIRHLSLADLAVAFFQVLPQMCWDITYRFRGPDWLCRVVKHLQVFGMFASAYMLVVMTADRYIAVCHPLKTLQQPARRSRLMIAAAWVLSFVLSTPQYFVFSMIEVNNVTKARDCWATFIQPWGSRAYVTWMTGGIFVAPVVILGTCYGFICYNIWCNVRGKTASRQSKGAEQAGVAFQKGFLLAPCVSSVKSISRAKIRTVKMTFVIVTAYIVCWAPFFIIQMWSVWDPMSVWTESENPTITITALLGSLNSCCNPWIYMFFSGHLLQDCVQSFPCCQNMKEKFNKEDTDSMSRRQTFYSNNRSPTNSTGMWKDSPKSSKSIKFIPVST
# [10] = molecular target: Luciferin 4-monooxygenase (Photinus pyralis, UniProt P08659); test: Counter Screen for Luciferase-based Assay Positives. [Related pubchem assays: 620, 618, 411 ]
# Luciferin 4-monooxygenase, sequence (P08659 whole entry): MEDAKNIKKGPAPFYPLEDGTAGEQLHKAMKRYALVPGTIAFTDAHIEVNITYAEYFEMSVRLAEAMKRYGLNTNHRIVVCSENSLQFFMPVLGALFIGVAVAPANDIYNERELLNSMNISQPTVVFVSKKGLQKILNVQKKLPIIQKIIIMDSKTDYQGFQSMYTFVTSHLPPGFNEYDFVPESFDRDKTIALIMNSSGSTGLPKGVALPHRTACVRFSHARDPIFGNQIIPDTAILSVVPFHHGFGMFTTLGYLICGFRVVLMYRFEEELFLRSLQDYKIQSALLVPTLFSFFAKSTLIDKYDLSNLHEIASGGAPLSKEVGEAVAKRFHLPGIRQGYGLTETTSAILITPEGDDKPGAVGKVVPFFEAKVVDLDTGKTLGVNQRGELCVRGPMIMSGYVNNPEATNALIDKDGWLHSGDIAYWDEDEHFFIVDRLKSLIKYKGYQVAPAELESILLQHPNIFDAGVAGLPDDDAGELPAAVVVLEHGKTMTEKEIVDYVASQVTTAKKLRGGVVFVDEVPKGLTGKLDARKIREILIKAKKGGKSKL
# [11] = molecular target: T1, Microphthalmia-associated transcription factor (Homo sapiens, UniProt O75030); test: reducers of TRPM1 reporter luminescence, concentration series – cell-based, SK-MEL-5, cherry-picked, set 3, MITF inhibitor project, dose response (AID 493073); assay type: functional;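 note: SK-MEL-5 melanoma cells with luciferase driven by the MITF target TRPM1 promoter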
# T1 sequence (O75030 whole entry): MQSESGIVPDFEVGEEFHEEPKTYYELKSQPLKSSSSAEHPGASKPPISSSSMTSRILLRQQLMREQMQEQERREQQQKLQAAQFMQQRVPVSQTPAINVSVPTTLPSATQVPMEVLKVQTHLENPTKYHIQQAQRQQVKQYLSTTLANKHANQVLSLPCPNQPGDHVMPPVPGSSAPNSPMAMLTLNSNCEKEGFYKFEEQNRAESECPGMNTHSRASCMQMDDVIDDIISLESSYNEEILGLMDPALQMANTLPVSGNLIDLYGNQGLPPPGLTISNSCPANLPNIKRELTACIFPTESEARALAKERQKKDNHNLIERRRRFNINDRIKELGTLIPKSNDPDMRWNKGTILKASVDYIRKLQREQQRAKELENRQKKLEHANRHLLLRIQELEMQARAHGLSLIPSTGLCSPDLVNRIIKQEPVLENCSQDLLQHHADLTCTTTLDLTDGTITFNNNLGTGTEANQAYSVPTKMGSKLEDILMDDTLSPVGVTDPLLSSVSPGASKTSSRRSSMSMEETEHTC
# [12] = molecular target: Genome polyprotein (dengue virus type 2, UniProt P29990); test: flavivirus cap methylation enzyme inhibition – biochemical, confirmation dose response, primary screen (AID 588689); assay type: functional
# Genome polyprotein, sequence (P29990 2492-3391 limits assumed): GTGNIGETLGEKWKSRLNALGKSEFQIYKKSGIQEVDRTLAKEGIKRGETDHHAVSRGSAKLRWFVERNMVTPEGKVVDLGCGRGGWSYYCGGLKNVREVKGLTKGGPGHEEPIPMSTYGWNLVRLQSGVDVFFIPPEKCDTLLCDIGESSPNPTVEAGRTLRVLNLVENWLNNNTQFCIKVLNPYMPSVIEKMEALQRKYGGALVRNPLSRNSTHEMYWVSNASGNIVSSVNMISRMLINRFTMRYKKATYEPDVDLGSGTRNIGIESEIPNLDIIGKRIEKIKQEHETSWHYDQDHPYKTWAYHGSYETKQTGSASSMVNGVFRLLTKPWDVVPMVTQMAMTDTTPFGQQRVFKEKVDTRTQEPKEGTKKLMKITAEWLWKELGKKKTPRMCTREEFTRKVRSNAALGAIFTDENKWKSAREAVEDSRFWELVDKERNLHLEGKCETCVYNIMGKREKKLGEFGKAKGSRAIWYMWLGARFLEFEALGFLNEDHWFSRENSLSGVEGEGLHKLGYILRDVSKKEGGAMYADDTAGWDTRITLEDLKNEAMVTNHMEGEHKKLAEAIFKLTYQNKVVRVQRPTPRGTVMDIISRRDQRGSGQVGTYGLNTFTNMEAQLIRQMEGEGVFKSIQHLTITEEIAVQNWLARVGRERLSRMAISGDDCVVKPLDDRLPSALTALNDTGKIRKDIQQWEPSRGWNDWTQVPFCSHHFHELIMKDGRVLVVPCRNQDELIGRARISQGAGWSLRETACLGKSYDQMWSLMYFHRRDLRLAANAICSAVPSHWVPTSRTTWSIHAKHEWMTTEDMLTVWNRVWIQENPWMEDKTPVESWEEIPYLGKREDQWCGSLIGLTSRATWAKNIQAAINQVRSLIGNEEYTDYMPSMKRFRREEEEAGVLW
# [13] = NIH-3T3 fibroblast cytotoxicity, dose response, cytotoxicity control, cell-based, fluorescence, Alamar Blue, secondary assay (AID 2327); assay type: functional;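 note: NIH-3T3 mouse fibroblasts cultured with fluconazole at 8 µg/mL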
# [14] = fluconazole-exposed Candida albicans growth modulators – fluorescence, retest, confirmation (AID 2467); assay type: functional, cell-based
# [15] = viability of uninfected HEp-2 cells – cell-based, HTS, cytotoxicity control for RSV inhibitor project, dose response (AID 2410); assay type: functional; details: human respiratory syncytial virus
# [16] = cells
# [17] = molecular target: T2, RNA-binding protein pos-1 (Caenorhabditis elegans, UniProt G5EF15); test: disruptors of C. elegans POS-1 RNA interaction – biochemical, fluorescence polarization, dose response (AID 1964);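 note: purified POS-1 fused to maltose binding protein made in E. coli; potency of compounds blocking POS-1 binding to fluorescent RNA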
# T2 sequence (G5EF15 whole entry): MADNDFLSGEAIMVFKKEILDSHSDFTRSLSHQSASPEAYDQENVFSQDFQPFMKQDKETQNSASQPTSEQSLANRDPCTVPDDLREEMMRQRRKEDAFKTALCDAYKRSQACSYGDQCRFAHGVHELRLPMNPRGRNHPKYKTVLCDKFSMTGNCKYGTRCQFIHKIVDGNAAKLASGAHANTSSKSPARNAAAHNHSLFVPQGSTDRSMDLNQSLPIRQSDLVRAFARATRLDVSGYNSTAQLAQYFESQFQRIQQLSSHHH
# [18] = molecular target: T3, Zinc finger protein mex-5 (Caenorhabditis elegans, UniProt Q9XUB2); test: potency of MEX-5 RNA-binding blockers – biochemical, C. elegans, fluorescence polarization, dose response (AID 1960)
# T3 sequence (Q9XUB2 whole entry): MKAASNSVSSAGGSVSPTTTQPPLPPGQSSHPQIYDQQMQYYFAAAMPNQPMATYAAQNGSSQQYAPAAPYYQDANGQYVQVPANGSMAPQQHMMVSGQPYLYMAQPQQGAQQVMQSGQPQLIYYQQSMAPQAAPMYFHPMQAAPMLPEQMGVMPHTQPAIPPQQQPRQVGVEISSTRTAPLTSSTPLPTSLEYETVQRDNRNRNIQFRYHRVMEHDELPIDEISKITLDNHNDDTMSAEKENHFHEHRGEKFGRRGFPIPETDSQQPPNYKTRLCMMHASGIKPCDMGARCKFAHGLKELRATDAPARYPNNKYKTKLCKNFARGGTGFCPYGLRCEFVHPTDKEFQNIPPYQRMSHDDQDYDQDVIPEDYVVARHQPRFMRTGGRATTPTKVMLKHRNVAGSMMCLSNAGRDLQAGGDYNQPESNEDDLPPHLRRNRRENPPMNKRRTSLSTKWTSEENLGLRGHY
# [19] = M. tuberculosis H37Rv growth inhibitors, H37Rv strain (AID 1626); assay type: functional
# [20] = molecular target: Ion channel NompC (Danio rerio, UniProt Q7T1G6); test: Fluorescence counterscreen assay for TRPML3 agonists: dose response cell-based high-throughput screening assay to identify agonists of the transient receptor potential channel N1 (TRPN1). [Related pubchem assays: 1526, 1424, 1448 ]; assay type: functional
# [21] = molecular target: Mucolipin-3 (Homo sapiens, UniProt Q8TDD5); test: Dose response cell-based high-throughput screening assay for agonists of the transient receptor potential channel ML3 (TRPML3). [Related pubchem assays: 1526, 1424, 1448 ]; assay type: functional
# [22] = CCR5-tropic HIV-1 fusion blockers – cell-based, CCR5-tropic Env, dose response (AID 2279); assay type: functional
# [23] = molecular target: FAD-linked sulfhydryl oxidase ALR (Homo sapiens, UniProt P55789); test: ALR-catalysed DTT oxidation blockers – biochemical, H2O2 detection, luminescence, cherry-pick, dose response (AID 493248)
# [24] = molecular target: Phospholipase A2 (Homo sapiens, UniProt P04054); assay type: functional;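 note: confirmatory dose-response counterscreen on phospholipase A2, testing hits that came from an ultra-high-throughput screen for ATG4B inhibitors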
# Phospholipase A2, sequence (P04054 whole entry): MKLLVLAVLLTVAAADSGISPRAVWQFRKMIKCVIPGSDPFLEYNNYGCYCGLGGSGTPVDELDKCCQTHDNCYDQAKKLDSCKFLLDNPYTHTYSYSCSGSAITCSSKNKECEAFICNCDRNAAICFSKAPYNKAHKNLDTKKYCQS
# [25] = molecular target: T4, High affinity choline transporter 1 (Homo sapiens, UniProt Q9GZV3); test: human choline transporter blockers, potency – cell-based, 5-point CRC, membrane potential dye, dose response (AID 504840); assay type: functional
# T4 sequence (Q9GZV3 whole entry): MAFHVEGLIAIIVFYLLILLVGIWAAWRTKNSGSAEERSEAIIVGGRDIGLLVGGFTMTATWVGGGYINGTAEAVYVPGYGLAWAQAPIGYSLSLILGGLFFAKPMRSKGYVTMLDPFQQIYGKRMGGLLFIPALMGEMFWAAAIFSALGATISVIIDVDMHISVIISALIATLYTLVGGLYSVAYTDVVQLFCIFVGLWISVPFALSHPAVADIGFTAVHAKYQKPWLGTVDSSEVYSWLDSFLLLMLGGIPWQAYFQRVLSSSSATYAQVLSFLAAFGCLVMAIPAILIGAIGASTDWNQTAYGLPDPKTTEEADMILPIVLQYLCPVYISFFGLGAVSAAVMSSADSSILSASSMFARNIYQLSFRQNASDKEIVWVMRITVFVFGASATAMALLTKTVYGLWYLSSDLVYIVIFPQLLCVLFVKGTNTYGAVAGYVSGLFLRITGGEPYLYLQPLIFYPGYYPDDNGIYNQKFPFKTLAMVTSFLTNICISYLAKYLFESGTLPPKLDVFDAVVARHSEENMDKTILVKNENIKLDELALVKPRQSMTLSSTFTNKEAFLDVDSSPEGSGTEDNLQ
# [26] = molecular target: T5, Cysteine protease ATG4B (Homo sapiens, UniProt Q9Y4P1); assay type: functional;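 note: Fluorescence-based dose-response confirmation assay measuring inhibition of ATG4B activity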
# T5 sequence (Q9Y4P1 whole entry): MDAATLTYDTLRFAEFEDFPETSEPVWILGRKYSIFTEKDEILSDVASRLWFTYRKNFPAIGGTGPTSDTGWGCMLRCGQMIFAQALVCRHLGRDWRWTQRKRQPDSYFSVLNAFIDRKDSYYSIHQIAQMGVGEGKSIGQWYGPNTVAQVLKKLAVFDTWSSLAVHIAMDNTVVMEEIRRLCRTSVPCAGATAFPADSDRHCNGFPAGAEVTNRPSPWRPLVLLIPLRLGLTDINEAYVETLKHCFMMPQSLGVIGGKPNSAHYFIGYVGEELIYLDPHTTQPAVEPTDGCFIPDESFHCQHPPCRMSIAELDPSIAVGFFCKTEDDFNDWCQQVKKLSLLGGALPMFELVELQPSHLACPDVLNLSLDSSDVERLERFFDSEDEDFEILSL
# [27] = molecular target: Lytic switch protein BZLF1 (Epstein-Barr virus (strain B95-8) (HHV-4) (Human herpesvirus 4), UniProt P03206); test: inhibition of BZLF1 ZTA DNA binding – biochemical, fluorescence polarization, Epstein-Barr virus, 1536-well, counter-screen for EBNA-1 inhibitor project, dose response (AID 2377); set-up: species or system human gammaherpesvirus 4;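 note: fluorescence polarization of Cy5-labelled ZRE DNA probe bound by purified Zta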
# [28] = molecular target: T6, Calpain-2 catalytic subunit (Sus scrofa, UniProt P43367); test: m-calpain protease blockers, concentration series – biochemical, fluorogenic peptide substrate, dose response (AID 1420); assay type: functional
# T6 sequence (P43367 whole entry): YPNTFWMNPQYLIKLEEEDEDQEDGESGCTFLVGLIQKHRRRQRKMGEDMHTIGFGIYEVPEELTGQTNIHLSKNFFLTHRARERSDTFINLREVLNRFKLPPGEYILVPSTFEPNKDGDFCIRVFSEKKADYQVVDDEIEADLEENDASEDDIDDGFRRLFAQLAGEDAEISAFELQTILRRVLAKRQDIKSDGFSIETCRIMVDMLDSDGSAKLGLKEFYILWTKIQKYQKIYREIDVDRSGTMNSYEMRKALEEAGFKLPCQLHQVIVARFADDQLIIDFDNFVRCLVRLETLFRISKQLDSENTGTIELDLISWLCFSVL
# [29] = molecular target: Epstein-Barr nuclear antigen 1 (Epstein-Barr virus (strain B95-8) (HHV-4) (Human herpesvirus 4), UniProt P03211); test: inhibition of EBV nuclear antigen 1 DNA binding – biochemical, fluorescence polarization, 1536-well, dose response (AID 2381); set-up: species or system human gammaherpesvirus 4;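 note: fluorescence polarization of a Cy5 DNA probe bound by EBNA-1 protein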
# [30] = system: Vero; test: cells; assay type: functional, cell-based; details: Chlorocebus sabaeus
# Estrogen receptor, sequence (P03372 whole entry): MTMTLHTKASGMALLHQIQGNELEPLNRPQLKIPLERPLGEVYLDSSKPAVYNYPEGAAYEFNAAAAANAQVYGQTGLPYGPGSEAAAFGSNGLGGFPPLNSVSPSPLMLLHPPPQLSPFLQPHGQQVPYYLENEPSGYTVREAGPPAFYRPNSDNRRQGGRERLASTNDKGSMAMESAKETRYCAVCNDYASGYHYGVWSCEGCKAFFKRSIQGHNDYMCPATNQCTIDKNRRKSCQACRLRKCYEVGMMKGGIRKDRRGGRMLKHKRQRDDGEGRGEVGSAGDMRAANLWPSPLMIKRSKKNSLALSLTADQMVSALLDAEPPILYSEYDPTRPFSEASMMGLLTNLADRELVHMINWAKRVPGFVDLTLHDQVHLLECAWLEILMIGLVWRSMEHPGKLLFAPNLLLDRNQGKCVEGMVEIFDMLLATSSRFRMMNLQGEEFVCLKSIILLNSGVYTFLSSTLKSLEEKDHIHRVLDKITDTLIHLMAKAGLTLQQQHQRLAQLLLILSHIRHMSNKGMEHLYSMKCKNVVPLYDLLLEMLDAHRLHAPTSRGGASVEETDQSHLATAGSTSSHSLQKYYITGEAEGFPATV
smiles,measurement,setting,value
CSc1ccc(S(=O)(=O)Nc2c(C)cccc2C)cc1,IC50,[1],> 50 µM (not active)
Cc1cnc(C(=O)OCC(=O)c2csc(N3CCCCC3)n2)cn1,IC50,[2],5.81 µM (active)
CN(C)c1ccc(NC(=O)Nc2cccc3ccccc23)cc1,IC50,[3],0.464 µM (active)
COCc1cc(C)nc(NC2CCCCC2)c1C#N,EC50,[4],> 50 µM (not active)
O=C(c1ccccc1C(F)(F)F)n1c2ccccc2c2ccccc21,EC50,[5],> 500 µM (not active)
CCN(CC)c1ccc(NC(=O)Nc2ccccc2C(F)(F)F)cc1,EC50,[6],> 50 µM (not active)
same,IC50,[3],0.354 µM (active)
NS(=O)(=O)c1ccc2[nH]c3c(c2c1)CCCC3,IC50,[7],> 100 µM (not active)
CC(Sc1ccc(Cl)cc1)C(=O)Nc1ccc(S(=O)(=O)N2CCOCC2)cc1 (configuration not stated),EC50,[8],> 29.9 µM (not active)
same,EC50,[9],> 29.9 µM (not active)
O=C(NCc1cccs1)c1nc2c(nnn2Cc2ccccc2Cl)c(=O)[nH]1,EC50,[10],15.4 µM (active)
same,AC50,[11],6.66 µM (active)
same,IC50,[12],51.8 µM (active)
O=C(c1ccc(C(=O)N2CCCc3ccccc32)s1)N1CCCc2ccccc21,EC50,[13],20.7 µM (inconclusive)
same,EC50,[14],2.45 µM (active)
same,CC50,[15],> 50 µM (active)
same,IC50,[16],> 50 µM (active)
CCOC(=O)c1ccc(N/C=C2\CCCCC2=O)cc1,EC50,[17],> 300 µM (not active)
same,EC50,[18],> 300 µM (not active)
same,IC50,[19],> 100 µM (active)
CCn1c2ccccc2c2nnc(SCC(=O)Nc3ccc4c(c3)OCO4)nc21,IC50,[1],> 50 µM (not active)
COC(C(=O)Nc1ccc(S(=O)(=O)Nc2ccc(F)cc2)cc1)c1ccccc1 (configuration not stated),EC50,[8],> 29.9 µM (not active)
same,EC50,[9],> 29.9 µM (not active)
Cc1ccccc1OCC(=O)Nc1ccccc1N1CCOCC1,EC50,[20],> 29.9 µM (not active)
same,EC50,[21],5.08 µM (active)
COc1ccc(/C=C2/SC(=O)N(CCCCCC(=O)Nc3ccccc3C(=O)O)C2=S)cc1,IC50,[22],> 50 µM (active)
same,AC50,[23],3.05 µM (active)
same,IC50,[24],5.25 µM (active)
same,IC50,[25],13.8 µM (active)
same,IC50,[26],14.5 µM (active)
Cc1nc(NC(=O)CSc2nnc(-c3ccc4c(c3)OCO4)o2)c(Cl)cc1Cl,IC50,[19],> 100 µM (active)
CCOc1ccc(Nc2nnc(SCc3nc(O)c4ccccc4n3)s2)cc1,IC50,[27],> 111 µM (not active)
same,IC50,[28],29.2 µM (not active)
same,IC50,[29],27 µM (not active)
Cc1ccc(CSCC(=O)Nc2ccccc2C(=O)O)cc1,CC50,[15],21.9 µM (active)
same,IC50,[30],12.2 µM (active)
same,IC50,[16],9.39 µM (active)
